According to the NIST ThermoML archive (doi:10.1016/j.jct.2012.05.001):
± gives the expanded uncertainty stated by the source.

Conditions: 101.33 kPa, Liquid; for viscosity: Falling or rolling sphere viscometry; for mass density: Vibrating tube method

| viscosity (293.15 K) [mPa·s] | mass density (293.15 K) [kg/m3] | viscosity (298.15 K) [mPa·s] | mass density (298.15 K) [kg/m3] | viscosity (303.15 K) [mPa·s] | mass density (303.15 K) [kg/m3] | viscosity (323.15 K) [mPa·s] | mass density (323.15 K) [kg/m3] | viscosity (343.15 K) [mPa·s] | mass density (343.15 K) [kg/m3] | SMILES |
| --- | --- | --- | --- | --- | --- | --- | --- | --- | --- | --- |
| 67.61 ± 1.1 | 1178.5 ± 25 | 52.01 ± 0.61 | 1175.1 ± 25 | 40.51 ± 0.52 | 1171.7 ± 25 | 18.19 ± 0.26 | 1158.1 ± 25 | 9.698 ± 0.14 | 1144.3 ± 25 | NCCO.O=CO [2-hydroxyethylammonium formate] |
| 807.6 ± 98 | 1205 ± 25 | 533.41 ± 56 | 1201.7 ± 25 | 369.63 ± 32 | 1198.3 ± 25 | 106.16 ± 3.9 | 1185 ± 25 | 41.09 ± 0.8 | 1171.7 ± 25 | O=C[O-].OCC[NH2+]CCO [diethanolammonium formate] |
